Experiments:
[1] = test system: latent HIV-1 in J-Lat A2 cells; assay: HIV-1 latency-reversing flow cytometry assay in J-Lat A2 cells; type: cell-based; conditions: 5 μM; for HIV-1 reactivation (GFP-positive cells): 24 hours post treatment
Protocol: (§1) The CD4+ T-lymphoid cell lines included Jurkat, J-Lat A2 (harboring an LTR-Tat-IRES-GFP construct), J-Lat 6.3, 8.4, 9.2, 10.4 (containing a full-length integrated HIV-1 genome with a defective envelop, that express GFP upon activation). Monocytic THP89GFP cells were provided by David Levy (New York University). Jurkat cells were cultured in RPMI with 10% FBS. THP89GFP and Primary CD4+ helper T cells (Sanguine Biosciences, Sherman Oaks, Calif. and Lonza Group Ltd., Basel, Switzerland) were cultured and maintained respectively in complete medium (RPMI 1640 with 10% FBS, lx glutamine, lx MEM non-essential amino acid solution, and 20 mM HEPES).
Wells were treated with 5 μM of compound or dimethyl sulfoxide (DMSO). GFP-positive cells were acquired and analyzed by flow cytometry at 24 hours post treatment.
(§2) All flow cytometry assays were conducted using an Accuri C6 Flow Cytometer (Accuri, Ann Arbor, Mich.). Cell debris and aggregates were excluded by gating on the Forward Scatter (FS) and Side Scatter (SS) parameters.

BRD4 = BRD4 (Homo sapiens, UniProt O60885); conditions: McKeown et al., J Med Chem, 2014; cited from earlier work
TAF1 = TAF1 (Homo sapiens, UniProt P21675); conditions: McKeown et al., J Med Chem, 2014; cited from earlier work
endogenous BRD4 = target: T1, endogenous BRD4 (Homo sapiens, UniProt O60885); assay: Pull-down with biotinylated UMB-136 from HEK293 cell lysate, BRD4 immunoblot; type: binding; conditions: biotinylated UMB-136, HEK293 cell lysate
T1 construct: endogenous in cells; host or cells: HEK293
Protocol: (§3) Pull-down and Immunoprecipitation (IP) assays were performed by incubating HEK293 cell lysate with either biotinylated UMB-136 or biotin in DMSO at 4° C. overnight with orbital rocking. MyOne™ Streptavidin T1 Dynabeads™ (Invitrogen, Carlsbad, Calif.) were added to the mixture which was then incubated for 2 hours. Beads were washed and then boiled to elute precipitated proteins, which were subjected to immunoblotting using BRD4 antibody (Bethyl Laboratories, Inc., Montgomery, Tex.) or BRD2 antibody (Santa Cruz Biotechnology, Dallas, Tex.).

BRD2 = target: T2, BRD2 (Homo sapiens, UniProt P25440); assay: Pull-down with biotinylated UMB-136 from HEK293 cell lysate, BRD2 immunoblot; type: binding; conditions: biotinylated UMB-136, HEK293 cell lysate
T2 construct: endogenous in cells; host or cells: HEK293
Protocol: as §3

P-TEFb (CCNT1) and Tat = assay: Tat-Flag immunoprecipitation in HeLa cells, Cyclin T1 immunoblot; type: cell-based; conditions: 2.5 μM, 24 hours
Protocol: Tat-Flag expressing HeLa cells were treated with UMB-136 (2.5 μM) or DMSO for 24 hours, then incubated with Magnetic Flag Conjugated beads (Clontech, Mountain View, Calif.) at 4° C. for overnight with orbital rocking. Beads were washed and boiled, then immunoblotting was performed using Cyclin T1 antibody (Santa Cruz Biotechnology, Dallas, Tex.).

[2] = test system: VSV-G pseudo-typed HIV-1 NL4-3-Luciferase virus infected Jurkat cells; type: cell-based
[3] = test system: full-length HIV-1 NL4-3 (X4) viruses in Jurkat cells; assay: Viral production in full-length HIV-1 NL4-3 infected Jurkat cells (qRT-PCR of medium); type: cell-based; conditions: full replication competent NL4-3 infected Jurkat cells, 24 hours
Protocol: To determine the effect of UMB-136 on HIV-1 replication, Jurkat cells were infected with full-length HIV-1 NL4-3 (X4) viruses for 8 hours before being treated with compounds (UMB-136, JQ1, or prostratin) for 24 hours. The medium was collected and subjected to viral RNA extraction, reverse transcription, and qPCR assays by using Lenti-X™ qRT-PCR Titration Kit (Clontech, Mountain View, Calif.) following the manufacturer's instructions.

[4] = test system: latent HIV-1 in J-Lat clones (6.3, 8.4, 9.2, and 10.4); assay: Flow cytometry on J-Lat full-length (dEnv) clones, single LRA; type: cell-based; conditions: J-Lat 6.3, 8.4, 9.2, 10.4; UMB-136 2.5 and 5 (printed PM), JQ1 1 μM; 24 hours
Protocol: as §1
(§4) The HIV-1 latency-reversing effect of UMB-136 was evaluated on different reservoirs (lymphocytes and macrophages), J-Lat cell clones (6.3, 8.4, 9.2, and 10.4) and THP89GFP were treated with DMSO, JQ1 (1 μM), or UMB-136 (2.5, 5 μM for J-Lat cells, 5 μM for THP89GFP). For the investigation of synergistic effects JLat clones were treated with UMB-136 (2.5 μM), JQ1 (1 μM), SAHA (0.5 μM) or prostratin (1 μM) or DMSO as a control. Drugs were used alone or in combination. Flow cytometry was conducted at 24 hours post treatment and GFP-positive cells were quantified.
(§5) All flow cytometry assays were conducted using an Accuri C6 Flow Cytometer (Accuri, Ann Arbor, Mich.). […]

[5] = test system: latent HIV-1 89.6 strain in THP89GFP cells; assay: Flow cytometry on THP89GFP monocytic latency cells; type: cell-based; conditions: UMB-136 5 μM, JQ1 1 μM, 24 hours
Protocol: as §1, §4, §5

[6] = test system: latent HIV-1 in non-polarized, memory CD4+ T cells; assay: Primary CD4+ T cell model of HIV-1 latency (blood or tonsil); type: cell-based; conditions: primary CD4+ T cells from blood or lymph node (tonsil), two donors; compound alone
Protocol: To acquire primary CD4+ T cells, primary CD4+ T cells were isolated from either lymphoid tissue (tonsil) or from the peripheral blood of two donors. Tonsils were isolated from HIV-negative donors, with obstructive sleep apnea (OSA), whom required surgical removal of their tonsils. Isolation of tonsillar mononuclear cells (TMC) was performed as described in Johnston et al. Curr Protoc Immunol Chapter 7, Unit 7-8. In brief, fresh, healthy tonsils kept in ice-cold 1× Hank's Balanced Salt Solution (HBSS) with antibiotics (100 U/mL penicillin, 100 ug/mL streptomycin, 5 ug/mL gentamicin, 0.5 ug/mL amphotericin) were cut into 3- to 10-mm fragments with scalpels then pushed through a 3-inch stainless steel sieve using the flat end of a 5-mL plastic syringe plunger. […]
The LRA effect of UMB-136 was studied by modifying slightly a primary CD4+ T cell model of HIV-1 latency as described in Bosque et al. Methods. […] On day 21, 5 days post treatment, the supernatant was collected for quantification of newly produced viruses using the Lent-X™ qRT-PCR Titration Kit (Clontech, Mountain View, Calif.) following the manufacturer's instructions.

primary CD4+ T cells = assay: Cytokine release in primary CD4+ T cells from healthy donor; type: cell-based
[7] = test system: latent HIV-1 in J-Lat clones (6.3, 8.4, 9.2, and 10.4); assay: LRA combinations in J-Lat clones (flow cytometry, Bliss independence model); type: cell-based; conditions: for Synergy in reversing HIV-1, combination with prostratin: +prostratin 1 μM
Protocol: as §4, §2

[8] = test system: latent HIV-1 in CD8-depleted PBMCs; assay: Ex vivo latency reversal in CD8-depleted PBMCs of cART-treated aviremic patients (nested qPCR); type: cell-based
CD8-depleted PBMCs = assay: Cell death due to LRA treatments in CD8-depleted PBMCs; type: cell-based; conditions: compared with JQ1 combinations
Jurkat cells = conditions: human, 24 h, 2.5 μM
Protocol: Cell viability assays were performed by culturing Jurkat cells in a 48-well plate at 1×10^5 cells per well in a total volume of 250 μl RPMI media with 10% FBS. […] After an incubation period of 24 hours, cells were lysed. The total ATP content was measured using Cell Titer Glo (Promega Corporation, Madison, Wis.).

[9] = test system: latent HIV-1 in CD8-depleted PBMCs; conditions: JQ1 in combination with bryostatin-1, earlier reports; cited from earlier work
[10] = J-Lat clones, Bliss independence model

Chain of TAF1 (P21675 whole entry): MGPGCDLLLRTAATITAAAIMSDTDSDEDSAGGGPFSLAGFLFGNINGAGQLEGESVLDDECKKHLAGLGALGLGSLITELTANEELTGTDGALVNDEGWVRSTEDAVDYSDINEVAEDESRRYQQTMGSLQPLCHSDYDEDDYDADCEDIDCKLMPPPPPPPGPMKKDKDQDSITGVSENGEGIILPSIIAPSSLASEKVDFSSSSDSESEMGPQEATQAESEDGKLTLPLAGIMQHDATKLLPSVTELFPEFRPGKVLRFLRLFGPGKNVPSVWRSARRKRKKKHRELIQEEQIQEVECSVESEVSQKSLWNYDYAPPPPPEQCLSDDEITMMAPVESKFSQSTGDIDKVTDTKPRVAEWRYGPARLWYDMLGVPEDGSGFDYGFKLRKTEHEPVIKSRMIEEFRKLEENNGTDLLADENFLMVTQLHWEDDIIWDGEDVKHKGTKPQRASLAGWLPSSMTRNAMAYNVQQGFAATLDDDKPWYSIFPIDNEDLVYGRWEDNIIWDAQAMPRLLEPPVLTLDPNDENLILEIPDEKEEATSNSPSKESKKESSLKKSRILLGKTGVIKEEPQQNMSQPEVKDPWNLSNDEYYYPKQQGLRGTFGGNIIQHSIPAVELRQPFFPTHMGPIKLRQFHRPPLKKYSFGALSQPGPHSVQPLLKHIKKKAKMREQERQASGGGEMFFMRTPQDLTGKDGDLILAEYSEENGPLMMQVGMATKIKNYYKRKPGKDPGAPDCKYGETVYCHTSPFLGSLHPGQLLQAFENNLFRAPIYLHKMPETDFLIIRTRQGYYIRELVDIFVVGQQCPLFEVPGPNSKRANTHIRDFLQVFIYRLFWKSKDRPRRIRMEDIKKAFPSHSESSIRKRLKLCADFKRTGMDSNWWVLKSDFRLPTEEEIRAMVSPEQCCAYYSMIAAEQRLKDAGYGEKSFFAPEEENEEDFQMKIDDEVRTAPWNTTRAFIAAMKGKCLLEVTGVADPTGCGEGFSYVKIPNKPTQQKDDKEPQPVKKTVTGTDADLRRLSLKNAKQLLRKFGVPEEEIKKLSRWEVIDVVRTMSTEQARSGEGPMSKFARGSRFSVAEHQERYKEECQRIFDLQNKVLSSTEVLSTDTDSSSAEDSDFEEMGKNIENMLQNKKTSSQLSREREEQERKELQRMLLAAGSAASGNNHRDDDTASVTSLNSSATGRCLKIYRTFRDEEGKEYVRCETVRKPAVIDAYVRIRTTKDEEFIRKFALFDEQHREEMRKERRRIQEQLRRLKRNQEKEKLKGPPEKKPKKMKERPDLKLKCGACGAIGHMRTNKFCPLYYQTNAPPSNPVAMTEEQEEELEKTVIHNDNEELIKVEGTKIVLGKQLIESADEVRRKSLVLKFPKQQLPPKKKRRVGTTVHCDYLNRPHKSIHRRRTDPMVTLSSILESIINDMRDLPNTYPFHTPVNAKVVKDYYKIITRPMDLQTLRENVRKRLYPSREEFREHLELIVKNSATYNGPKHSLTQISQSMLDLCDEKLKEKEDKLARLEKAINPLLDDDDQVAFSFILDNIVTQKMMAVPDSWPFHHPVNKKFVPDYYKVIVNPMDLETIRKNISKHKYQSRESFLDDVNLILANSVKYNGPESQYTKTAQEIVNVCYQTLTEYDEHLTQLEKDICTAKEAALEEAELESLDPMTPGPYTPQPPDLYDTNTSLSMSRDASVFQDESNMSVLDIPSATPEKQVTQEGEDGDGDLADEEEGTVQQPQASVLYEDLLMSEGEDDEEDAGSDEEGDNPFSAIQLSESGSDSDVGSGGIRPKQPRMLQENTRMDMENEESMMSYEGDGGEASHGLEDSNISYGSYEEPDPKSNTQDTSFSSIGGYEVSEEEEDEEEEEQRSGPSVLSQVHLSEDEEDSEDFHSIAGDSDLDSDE
T2 sequence (P25440 whole entry): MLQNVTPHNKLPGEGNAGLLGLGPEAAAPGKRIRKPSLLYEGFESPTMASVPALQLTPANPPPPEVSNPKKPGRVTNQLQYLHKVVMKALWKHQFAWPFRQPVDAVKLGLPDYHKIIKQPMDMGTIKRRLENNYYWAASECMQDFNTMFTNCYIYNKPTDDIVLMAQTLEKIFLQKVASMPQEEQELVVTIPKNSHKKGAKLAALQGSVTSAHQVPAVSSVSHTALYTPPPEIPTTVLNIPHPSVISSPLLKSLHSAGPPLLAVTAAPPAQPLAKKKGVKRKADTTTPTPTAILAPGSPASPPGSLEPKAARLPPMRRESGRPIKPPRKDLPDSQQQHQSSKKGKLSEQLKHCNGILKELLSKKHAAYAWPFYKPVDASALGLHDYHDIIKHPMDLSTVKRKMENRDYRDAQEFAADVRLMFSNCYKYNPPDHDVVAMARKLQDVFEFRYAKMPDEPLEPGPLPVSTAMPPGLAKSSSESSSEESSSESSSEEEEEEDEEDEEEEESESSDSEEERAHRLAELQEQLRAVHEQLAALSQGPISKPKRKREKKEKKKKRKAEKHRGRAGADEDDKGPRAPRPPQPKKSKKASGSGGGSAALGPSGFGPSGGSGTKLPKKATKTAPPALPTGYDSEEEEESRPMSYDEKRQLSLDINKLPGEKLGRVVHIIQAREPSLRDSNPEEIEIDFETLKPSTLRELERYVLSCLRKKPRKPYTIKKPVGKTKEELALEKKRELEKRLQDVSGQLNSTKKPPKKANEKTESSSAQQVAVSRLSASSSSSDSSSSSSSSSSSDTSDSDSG

Cc1noc(C)c1-c1ccc(-c2nc3cnccn3c2NC(C)(C)C)cc1 [UMB-32]
HIV-1 reactivation (GFP-positive cells) [1]: significantly induced HIV-1 reactivation | Binding to BRD4 (BRD4): strongly binds | Inhibition of target binding of BRD4 (BRD4): potently inhibits the target binding of BRD4 | Binding to TAF1 (TAF1): strongly binds

COc1cc(-c2c(C)noc2C)ccc1-c1nc2cnccn2c1NC1CCCCC1 [UMB-136]
HIV-1 latency-reversing potency relative to other UMB compounds ([1]; 24 hours): most effective of all | HIV-1 reactivation (GFP-positive cells) [1]: significantly induced HIV-1 reactivation | Binding to endogenous BRD4 (pull-down) (endogenous BRD4): binds to endogenous BRD4 | Binding to BRD2 (pull-down) (BRD2): not BRD2 | Protein association between P-TEFb (CCNT1) and Tat (P-TEFb (CCNT1) and Tat): greater protein association between P-TEFb (CCNT1) and Tat | HIV-1 transcriptional initiation and elongation [2]: enhances both transcriptional initiation and elongation of HIV-1 | Viral production [3]: enhanced viral production | Reversal of HIV-1 latency (GFP-positive cells) [4]: dramatically reversed HIV-1 latency | Reactivation of latent HIV-1 [5]: substantial reactivation | Reactivation of latent virus [6]: efficiently reactivated latent virus | Cytokine release (primary CD4+ T cells): does not induce cytokine release | Synergy in reversing HIV-1, combination with SAHA ([7]; J-Lat clones, Bliss independence model, +SAHA 0.5 μM): statistically significant synergistic effect | Synergy in reversing HIV-1, combination with prostratin [7, 10]: statistically significant synergistic effect | HIV-1 reactivation in combination with SAHA or prostratin, compared with JQ1 combination ([7]; J-Lat clones, UMB-136 2.5 μM, SAHA 0.5 μM, prostratin 1 μM): greater effect of HIV-1 reactivation than its JQ1 counterpart | Viral reactivation, combination with bryostatin-1, compared with JQ1+bryostatin-1 [8]: even greater viral reactivation | Reversal of HIV-1 latency, combination with PKC agonists (prostratin or bryostatin-1) ([8]; CD8-depleted PBMCs, UMB-136 2.5 μM, prostratin 250 nM or bryostatin-1 10 nM, 48 hours): observed to reverse HIV-1 latency | Cytotoxicity (cell death) of combinations with prostratin/bryostatin-1 (CD8-depleted PBMCs): less cytotoxicity than JQ1 and prostratin/bryostatin-1 combinations | Cell viability (Jurkat cells): same viability as 1 μM of JQ1

Cc1sc2c(c1C)C(c1ccc(Cl)cc1)=N[C@@H](CC(=O)OC(C)(C)C)c1nnc(C)n1-2 [JQ1, reference compound]
Viral production [3]: did not | Reversal of HIV-1 latency (GFP-positive cells) [4]: no observable effect | Reactivation of latent HIV-1 [5]: did not | Reactivation of latent virus [6]: fails to do so | Reactivation of latent HIV-1, combination with SAHA ([7]; J-Lat cell clones, JQ1+SAHA combination): minimally reactivates latent HIV-1 | Synergy in reversing HIV-1, combination with prostratin [7, 10]: significantly synergizes with prostratin | Reversal of HIV-1 latency, combination with bryostatin-1 (reported) [9]: potently reverse HIV-1 latency
